For one series, the system named is healthy male subjects. The conditions noted are these: metoprolol alone; cited from earlier work.
Series [1] deals with Healthy human male volunteers. Nature of the series: Retrospective analysis of the Phase 1 DDI study: heart rate and blood pressure at rest. In kind it is in vivo. From the text: FIG. 2. […] By ‘t’ test—Wilcoxon matched-pairs signed rank test.
(§1) Healthy human male volunteers, 18-50 years of age. A total of 14 subjects were included in the study.
(§2) Two consecutive study periods separated by a washout period of at least three days. The sequence of events was the same for all subjects.
Particularly, the effect of tesofensine-metoprolol on heart rate and blood pressure at rest, was investigated.

The next series has as its target T1, CYP2D6 (Homo sapiens, UniProt P10635).
T1 construct: Healthy human male volunteers, 18-50 years of age; A total of 14 subjects were included in the study; from tissue; host or cells: in vivo, healthy human male volunteers (endogenous enzyme)
Nature of the series: Phase 1 drug-drug interaction (DDI) study with metoprolol: metoprolol pharmacokinetics without and with tesofensine at steady state. In kind it is in vivo. As to conditions: metoprolol 50 mg single dose after 14 days tesofensine vs metoprolol alone.
From the text: FIG. 1. PK of metoprolol after a single dosing in absence and presence of tesofensine at steady state.
as §1, §2

Another series deals with obese patients. As to conditions: long-term treatment, corrected for placebo and diet effects; cited from earlier work.

T1 sequence (P10635 whole entry): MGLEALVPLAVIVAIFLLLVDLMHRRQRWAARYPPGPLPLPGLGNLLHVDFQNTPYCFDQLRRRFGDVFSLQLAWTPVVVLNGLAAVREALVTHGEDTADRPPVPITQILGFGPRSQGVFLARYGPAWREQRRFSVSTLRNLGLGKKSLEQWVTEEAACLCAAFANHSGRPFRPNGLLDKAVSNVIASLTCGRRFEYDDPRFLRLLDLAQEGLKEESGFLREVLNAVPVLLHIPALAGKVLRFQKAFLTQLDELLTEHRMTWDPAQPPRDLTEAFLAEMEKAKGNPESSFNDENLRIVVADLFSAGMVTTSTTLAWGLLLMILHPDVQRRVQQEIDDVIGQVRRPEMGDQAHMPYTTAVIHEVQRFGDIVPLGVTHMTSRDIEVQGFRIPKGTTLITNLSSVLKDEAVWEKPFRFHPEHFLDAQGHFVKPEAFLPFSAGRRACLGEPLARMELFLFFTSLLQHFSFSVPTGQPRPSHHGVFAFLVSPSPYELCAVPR

In the case of `COCCc1ccc(OCC(O)CNC(C)C)cc1` (stereo not shown) [metoprolol, 1-(Isopropylamino)-3-[4-(2-methoxyethyl)-phenoxy]-propan-2-ol], in the series on healthy male subjects, the “decrease in supine diastolic blood pressure” value is on record as “about 4 mmHg” and the “decrease in supine systolic blood pressure” value is listed as “about 4 mmHg”. Besides, in series [1] (day 14, tesofensine treated subjects, 7 hours after metoprolol), the “effect on tesofensine-induced increase in heart rate, 7 hours after single metoprolol dose” value is “normalize the tesofensine-induced increase in heart rate”. Moreover, the “effect on heart rate, ~24 hours after single metoprolol dose” value in series [1] (day 15, tesofensine treated subjects, ~24 hours after metoprolol) is on record as “disappeared”.
Take `CCOC[C@@H]1[C@@H](c2ccc(Cl)c(Cl)c2)C[C@@H]2CC[C@H]1N2C` [tesofensine, (1R,2R,3S,5S)-3-(3,4-dichlorophenyl)-2-(ethoxymethyl)-8-methyl-8-azabicyclo[3.2.1]octane]: on CYP2D6, the “effect on metoprolol Cmax” value was “no effect” and the “effect on metoprolol Tmax” value was “no effect”. Besides, in the series on obese patients, the weight loss entry is given as “about 10%”. The “heart rate after 14 days of tesofensine vs prelevel” value in series [1] (tesofensine only, day 14, p<0.01 vs prelevel) is recorded as “Increase in heart rate”. In addition, the “diastolic BP after 14 days of tesofensine treatment” value in series [1] (tesofensine only, vs pre-treatment) is “essentially not altered”. Further, in series [1] (tesofensine only, vs pre-treatment, not significant), the “systolic BP after 14 days of tesofensine treatment” value was “increase systolic BP slightly”.

The values above are taken from patent US12178810B2 (priority 2016, dated 2024).
